This note sets out measurements from patent publication US6565883B2, “Controlled release oral compositions comprising rivastigmine” (priority 1998, dated 2003).

The nature of this data set: Rivastigmine's biopharmaceutical properties in humans. It counts as in vivo. The source says:
Little has been published in detail on Rivastigmine's biopharmaceutical properties in humans. […] It is subject to pre-systemic and systemic metabolism. […] Suitable test may be effected in fasted beagle dogs.

For `CCN(C)C(=O)Oc1cccc([C@H](C)N(C)C)c1` [Rivastigmine], the absorption entry is “rapidly and completely absorbed”. Moreover, where the note is “esterases, e.g., acetyl and butyryl cholinesterase”, the metabolism entry is listed as “metabolised mainly through hydrolysis by esterases”. For the setting “human, plasma”, the half-life (usually the time needed for the level to fall by half in the phase considered) was 1 h.
